Test results: patent US20230167088A1, “1-PYRAZINYLPYRAZOLYL-3-OXYALKYL ACIDS AND THEIR DERIVATIVES, AND THEIR USE FOR CONTROL OF UNDESIRED PLANT GROWTH” (BAYER AKTIENGESELLSCHAFT, priority 2020, published 2023)

Key:
[1] = system: ALOMY; test: Herbicidal post-emergence action 1a (greenhouse pots, visual rating); assay type: in vivo, Alopecurus myosuroides; settings: rated visually about 3 weeks after treatment, 100% = plants have died, 0% = like control plants
Procedure, shortened: (§1)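 Visual scoring versus untreated plants (100% = plants dead, 0% = as control) followed roughly 3 weeks in the greenhouse after treatment. Plants grown in sandy loam pots had been sprayed on green parts at the one-leaf stage, 2–3 weeks post-sowing, with aqueous WP/EC preparations containing 0.5% additive, 600 l/ha, at 320 and/or 80 g/ha.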

[2] = system: DIGSA; test: as above; assay type: in vivo, Digitaria sanguinalis; settings: Dosage 320 g/ha; rated visually about 3 weeks after treatment; 100% = plants have died, 0% = like control plants
Procedure, shortened: as §1

[3] = system: LOLRI; test: as above; assay type: in vivo, Lolium rigidum; settings: rated visually about 3 weeks after treatment, 100% = plants have died, 0% = like control plants
Procedure, shortened: as §1

[4] = system: ABUTH; test: as above; assay type: in vivo, Abutilon theophrasti; settings: visual rating about 3 weeks after treatment
Procedure, shortened: as §1

[5] = system: PHBPU; test: as above; assay type: in vivo, Pharbitis purpurea; settings: visual rating about 3 weeks after treatment
Procedure, shortened: as §1

[6] = system: POLCO; test: as above; assay type: in vivo, Polygonum convolvulus; settings: visual rating about 3 weeks after treatment
Procedure, shortened: as §1

[7] = system: VIOTR; test: as above; assay type: in vivo, Viola tricolor; settings: visual rating about 3 weeks after treatment
Procedure, shortened: as §1

[8] = system: ALOMY; test: Herbicidal pre-emergence action 2a (greenhouse pots, visual scoring); assay type: in vivo, Alopecurus myosuroides; settings: dosage 320 g/ha, visual scoring after about 3 weeks
Procedure, shortened: (§2)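 Sow, cover with soil, spray soil surface (WP or EC in water, 0.5% additive, 600 l/ha; 320 and/or 80 g/ha), grow in greenhouse ~3 weeks, score visually in % against untreated controls.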

[9] = system: VIOTR; test: as above; assay type: in vivo, Viola tricolor; settings: dosage 320 g/ha, visual scoring after about 3 weeks vs untreated controls
Procedure, shortened: as §2

[10] = system: POAAN; test: Herbicidal pre-emergence action 2b (doubly sown, 1280 g/ha); assay type: in vivo, Poa annua; settings: doubly sown pots, dosage 1280 g/ha, visual scoring after about 3 weeks
Procedure, shortened: (§3)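 Pre-emergence soil-surface spray (WP/EC formulation, 0.5% additive, 600 L/ha water) onto covered seeds in sandy loam, doubly sown per pot. Greenhouse ~3 wk; % effect scored visually against untreated pots.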

[11] = system: MATIN; test: as above; assay type: in vivo, Matricaria inodora; settings: doubly sown pots, dosage 1280 g/ha, visual scoring after about 3 weeks
Procedure, shortened: as §3

[12] = system: harmful plants; test: Herbicidal post-emergence action 1a, summary across species; assay type: in vivo; settings: Tables A1 to A15 (320 g/ha and/or 80 g/ha)
Protocol: a) Seeds of monocotyledonous and dicotyledonous weeds and crop plants are placed in sandy loam in plastic or organic plant pots, covered with soil and cultivated in a greenhouse under controlled growth conditions. 2 to 3 weeks after sowing, the test plants are treated at the one-leaf stage. The compounds of the invention, formulated in the form of wettable powders (WP) or as emulsion concentrates (EC), are then sprayed onto the green parts of the plants as aqueous suspension or emulsion with addition of 0.5% additive at a water application rate of 600 1/ha (converted). After the test plants have been kept in the greenhouse under optimum growth conditions for about 3 weeks, the activity of the preparations is rated visually in comparison to untreated controls. For example, 100% activity=the plants have died, 0% activity=like control plants.
Tables A1 to A15 below show the effects of selected compounds of the general formula (I) according to Tables 1 and 2 on various harmful plants and an application rate corresponding to 320 g/ha and/or 80 g/ha, which were obtained by the experimental procedure mentioned above.
For example, compound nos. I-05, I-07, I-08, I-10, I-12, I-16, I-17, I-22, I-36, I-37, I-39 and I-40 in the post-emergence method have very good action (80% to 100% herbicidal activity) against harmful plants such as Alopecurus myosuroides, Amaranthus retroflexus, Avena fatua, Lolium rigidum, Polygonum convolvulus, Setaria viridis, Veronica persica and Viola tricolor at an application rate of 0.32 kg of active substance per hectare.

[13] = system: AVEFA; test: Herbicidal pre-emergence action 2a (greenhouse pots, visual scoring); assay type: in vivo, Avena fatua; settings: dosage 320 g/ha, visual scoring after about 3 weeks
Procedure, shortened: as §2

[14] = system: MATIN; test: as above; assay type: in vivo, Matricaria inodora; settings: dosage 320 g/ha, visual scoring after about 3 weeks vs untreated controls
Procedure, shortened: as §2

[15] = system: VERPE; test: as above; assay type: in vivo, Veronica persica; settings: dosage 320 g/ha, visual scoring after about 3 weeks vs untreated controls
Procedure, shortened: as §2

[16] = system: ECHCG; test: as above; assay type: in vivo, Echinochloa crus-galli; settings: dosage 320 g/ha, visual scoring after about 3 weeks
Procedure, shortened: as §2

SMILES	Post-emergence action against ALOMY in % ([1]; Dosage 80 g/ha) [%]	Post-emergence action against ALOMY in % ([1]; Dosage 320 g/ha) [%]	Post-emergence action against DIGSA in % [2] [%]	Post-emergence action against LOLRI in % ([3]; Dosage 320 g/ha) [%]	Post-emergence action against ABUTH in % ([4]; dosage 320 g/ha) [%]	Post-emergence action against PHBPU in % ([5]; dosage 320 g/ha) [%]	Post-emergence action against POLCO in % ([6]; dosage 320 g/ha) [%]	Post-emergence action against VIOTR in % ([7]; dosage 320 g/ha) [%]	Pre-emergence action against ALOMY in % [8] [%]	Pre-emergence action against VIOTR in % [9] [%]	Pre-emergence action at 1280 g/ha against POAAN in % [10] [%]	Pre-emergence action at 1280 g/ha against MATIN in % [11] [%]	herbicidal efficacy against harmful plants in the case of post-emergence treatment (in words) [12]	Post-emergence action against LOLRI in % ([3]; Dosage 80 g/ha) [%]	Post-emergence action against PHBPU in % ([5]; dosage 80 g/ha) [%]	Post-emergence action against VIOTR in % ([7]; dosage 80 g/ha) [%]	Pre-emergence action against AVEFA in % [13] [%]	Pre-emergence action against MATIN in % [14] [%]	Pre-emergence action against VERPE in % [15] [%]	further results
COC(=O)[C@@H](C)Oc1nn(-c2cnccn2)c(-c2cncc(F)c2)c1C#N [Example I-40]	80	90	80	80	80	90	80	80	100	90	100	100	good herbicidal efficacy	–	–	–	–	–	–	Post-emergence action against ABUTH in % ([4]; dosage 80 g/ha): 80%; Post-emergence action against POLCO in % ([6]; dosage 80 g/ha): 80%
COC(=O)C(C)Oc1nn(-c2cnccn2)c(-c2ccc(F)c(F)c2)c1C#N (racemic) [Example I-22]	90	100	80	100	–	90	80	90	100	90	100	90	good herbicidal efficacy	80	80	80	90	–	–	–
COC(=O)COc1nn(-c2cnccn2)c(-c2ccc(F)nc2)c1Br [Example I-11]	–	100	–	–	80	80	90	100	100	100	100	90	good herbicidal efficacy	–	80	90	–	90	90	–
C[C@@H](Oc1nn(-c2cnccn2)c(-c2cccc(F)c2)c1Br)C(=O)O [Example I-48]	90	–	–	–	–	–	100	–	100	100	100	100	–	–	–	–	90	100	100	Pre-emergence action against ECHCG in % [16]: 100%
COC(=O)[C@@H](C)Oc1nn(-c2cnccn2)c(-c2ccc(F)c(F)c2)c1C#N [Example I-46]	90	90	–	90	–	–	100	–	100	100	100	100	–	90	–	–	90	100	100	Pre-emergence action against ECHCG in % [16]: 100%
COC(=O)C(C)Oc1nn(-c2cnccn2)c(-c2ccc(F)nc2)c1Br (racemic) [Example I-12]	90	90	80	90	80	90	90	100	100	100	100	90	good herbicidal efficacy	–	80	90	90	–	80	–
COC(=O)[C@@H](C)Oc1nn(-c2cnccn2)c(-c2ccc(F)c(F)c2)c1Br [Example I-45]	90	90	–	90	80	90	100	90	100	100	100	100	good herbicidal efficacy	90	–	80	80	100	80	–
CCOC(=O)COc1nn(-c2cnccn2)c(-c2ccc(F)nc2)c1Br [Example I-52, ethyl {[4-bromo-5-(6-fluoropyridin-3-yl)-1-(pyrazin-2-yl)-1H-pyrazol-3-yl]oxy}acetate]	80	90	–	–	80	–	80	80	90	90	100	90	–	–	80	–	–	90	90	–
COC(=O)C(C)Oc1nn(-c2cnccn2)c(-c2ccnc(F)c2)c1Br (racemic) [Example I-10]	90	90	80	90	–	–	–	100	100	80	100	90	good herbicidal efficacy	–	–	90	90	–	–	–
